These are literature values, as cited in patent publication US20080076825A1, “Novel Crystalline Forms of Entacapone and Production Thereof” (priority 2003, published 2008).

What is called bioavailability is dose-corrected exposure relative to a reference, in per cent.

Data set [1] deals with Parkinson's disease. The note with it: in combination with levodopa and a decarboxylase inhibitor; by lengthening the dosage interval and/or reducing the single dose.
The conditions of data set [2]: commercially available entacapone.

For `CCN(CC)C(=O)/C(C#N)=C/c1cc(O)c(O)c([N+](=O)[O-])c1` [entacapone, (E)-N,N-diethyl-2-cyano-3-(3,4-dihydroxy-5-nitrophenyl)acrylamide], the “reduction of the amount of L-dopa to be administered” value in data set [1] was 10-30%. Further, in data set [2], the bioavailability is recorded as 35%.
